Where no end group is shown, it is not given here.
Experiments:
[1] = system: human iPS cells (cell line: 201B2); assay: iPS cell membrane permeability of FITC-labeled peptides (FITC fluorescence intensity, confocal laser scanning microscopy); format: cell-based; conditions: 1 hour; for Relative Intensity (FITC fluorescence): relative to Comparative Sample 2 at 0.5 μM = 1, average of five measurements; for introduction into artificial pluripotent stem cells: 0.5 μM or 1 μM
Method: Next, the abilities of the three resulting synthesized peptides to pass through the cell membranes of artificial pluripotent stem cells (iPS cells) were investigated. Fluorescein isothiocyanate (FITC) was added beforehand to the N-terminus of each of the synthesized peptides.
The human iPS cells (cell line: 201B2) used in this example were procured from Kyoto University. The mouse embryo fibroblasts (cell line: SNL76/7) used as feeder cells were procured from ECACC, which supply the cells on commission from Dr. Allan Bradley.
The iPS cells thus acquired were cultured, using a human embryonic stem cell culture medium (DMEM/F12, containing 20% knockout serum replacement (KSR), 2 mM L-glutamine, 0.1 mM non-essential amino acids, 0.1 mM 2-mercaptoethanol, 50 units/50 μg/ml penicillin/streptomycin, and 4 ng/ml bFGF), in a 37° C., 5% CO2 environment on a gelatin-coated dish seeded with the above SNL feeder cells that had been mitomycin C-treated.
The cultured iPS cells were then treated with a CTK solution (containing 1 mg/ml collagenase IV, […], […] and 20% KSR), and recovered. Next, a suspension of microaggregates was prepared by pipetting, dispensed into each well of a commercial gelatin-coated 4-well chamber (culture) slide that had been seeded with mitomycin C-treated SNL feeder cells, and cultured in a 37° C., 5% CO2 environment for about 6 days.
The culture solution in each well was then replaced with a cell culture obtained by adding a peptide stock solution (1 mM) of any one of the above Sample 6 and Comparative Samples 1 and 2 that had been pre-labeled with FITC to a specified concentration (i.e., to a final concentration within the medium of 0.5 μM or 1 μM), and the cell culture was cultured for 1 hour in a 37° C., 5% CO2 environment.
Next, after washing with PBS, the cells within the wells were fixed with cold methanol, and were encapsulated using a DAPI-containing antifade reagent (Invitrogen).
Localization of the FITC-labeled peptides was confirmed using a confocal laser scanning microscope. Specifically, the FITC fluorescence intensity in each test group (the respective encapsulated samples to be measured) was measured by confocal laser scanning microscopic analysis. The measurement conditions were as follows.
Argon laser excitation wavelength: 488 nm
Objective lens: Plan-Apochromat 20×/0.75
The relative fluorescence intensity of each test group was calculated relative to a value of 1 for the fluorescence intensity of the test group in which Comparative Sample 2 was added to a final concentration within the culture medium of 0.5 μM. Measurement was independently carried out five times, and the average value of the five measurements was treated as the fluorescence intensity. In addition, micrographs obtained using a confocal laser scanning microscope to observe iPS cell cultures to which Sample 6 or Comparative Sample 2 was added to a final concentration of 1 μM (the above encapsulated test groups) are shown respectively in FIG. 7 (Sample 6 addition group) and FIG. 8 (Comparative Sample 2 addition group).

[2] = system: neural stem cells collected from a rat; conditions: peptide 1 μM in culture broth, 24 hours
Method: That is, these sample peptides were added to a culture broth of neural stem cells collected from a rat, and incubated. The amount of peptide added was adjusted so that the peptide concentration within the culture broth became 1 μM for each peptide.
In addition, the same sample was subjected to evaluation with a neuronal differentiation induction marker. That is, using tubulin as a marker for identifying neurons, the presence or absence of tubulin (i.e., of neurons) in the culture broth was determined by a fluorescent antibody method that uses a fluorescent dye-labeled anti-tubulin antibody for identifying this tubulin. In addition, using glial fibrillary acidic protein (GFAP), which is a cytoskeletal protein in glial cells, as a marker for identifying glial cells, the presence or absence of GFAP (i.e., of glial cells) in the culture broth was determined by a fluorescent antibody method that uses a fluorescent dye-labeled anti-GFAP antibody for identifying this GFAP.

Row | Substance | Relative Intensity (FITC fluorescence) ([1]; 0.5 μM final concentration) | Relative Intensity (FITC fluorescence) ([1]; 1.0 μM final concentration) | introduction into artificial pluripotent stem cells [1] | differentiation to glial cells (GFAP marker) [2] | neuronal differentiation (differentiation from neural stem cells to neurons, tubulin marker) [2]
1 | TLKERCLQVVRSLVKKKRTLRKNDRKKR [Sample 6] | 13.5 | 23.2 |  |  | 
2 | RRRRRRRRRGTLKERCLQVVRSLVK [Comparative Sample 3, VHL peptide linked through a single glycine residue to the C-terminal end of polyarginine R9] | <1 | 2.8 | substantially not introduced |  | 
3 | KKRTLRKNDRKKR [Comparative Sample 1] |  |  |  | not observed | not observed
4 | TLKERCLQVVRSLVKSRRHHCRSKAKRSRHH [Comparative Sample 2, VHL peptide linked to the N-terminal end of hPER1-NLS] | 1 | 4.8 | substantially not introduced |  | 
5 | SLQYLCRFVIRQYTRKKRTLRKNDRKKR-NH2 [Sample 2, SLQYLCRFVIRQYTR-KKRTLRKNDRKKR] |  |  |  | not observed | 
